Results from patent US11040033B2 (Gilead Sciences, Inc., priority 2017, dated 2021).

Molecular target: T1, IDO1 (Homo sapiens, UniProt P14902)
T1 construct: HeLa cells were treated with a test compound in the presence of IFNγ, which induces IDO1 expression; endogenous in cells; host or cells: H1-HeLa cells (ATCC #CRL-1958), induced with IFNγ
Experiment: Cell-based (HeLa) assay for measurement of IDO1 inhibition (kynurenine levels in supernatant after IFNγ induction)
Settings: H1-HeLa cells, IFNγ-induced IDO1, 48 hour incubation, kynurenine absorbance at 480 nm; geometric mean of a minimum of four determinations
Description: To measure IDO1 inhibition in tissue culture, HeLa cells were treated with a test compound in the presence of IFNγ, which induces IDO1 expression. Following incubation, cell supernatants were assayed for kynurenine levels, an indicator of IDO1 activity.
H1-HeLa cells (ATCC #CRL-1958) were seeded in 384-well plates (Greiner #82051-282) at a volume […] (Corning #15-018-CM) supplemented with 10% FBS (Corning #35-011-CV) and 1% P/S/G (Corning #30-009-CL) at a density of 1,250 cells/well and incubated overnight at 37° C., 5% CO2/100% humidity. The following day, the test compounds were added in DMSO (0.5% final) at various concentrations, and IDO1 was inducibly expressed by the addition of 50 uL/well of 50 ng/mL of INFγ(Peprotech #300-02) in cell plating media. As a positive control, 50 uL of the cell plating media without IFNγ was added to several wells. Following a 48 hour incubation, the plates were spun down at 1,200 RPM for 5 min at 10° C. 65 μL/well of the supernatant was then transferred to new 384-well plates (Thermo #262160) that contained 10 uL/well of 30% TCA (Sigma #T0699), and the plates were sealed and incubated at 60° C. for 30 min. The plates were then centrifuged for 15 min at 2,000 RPM at 10° C. 40 μL/well of the supernatant was transferred to new 384-well plates (Thermo #262160) and was reacted with 40 μL/well of 2% (w/v) p-dimethylaminobenzaldehyde (Sigma #156417) in glacial acetic acid (Sigma #A6283). The reaction was incubated at room temperature for 10 min and absorbance at 480 nm was read using a PerkinElmer Envision plate reader.
Data in Table 1 were normalized based on positive (−IFNγ) and negative (+IFNγ) controls and EC50 values were calculated from the fit of the dose-response curves to a four-parameter equation. All EC50 values represent geometric mean values of a minimum of four determinations. These assays generally produced results within 2-fold of the reported mean.

T1 sequence (P14902 whole entry): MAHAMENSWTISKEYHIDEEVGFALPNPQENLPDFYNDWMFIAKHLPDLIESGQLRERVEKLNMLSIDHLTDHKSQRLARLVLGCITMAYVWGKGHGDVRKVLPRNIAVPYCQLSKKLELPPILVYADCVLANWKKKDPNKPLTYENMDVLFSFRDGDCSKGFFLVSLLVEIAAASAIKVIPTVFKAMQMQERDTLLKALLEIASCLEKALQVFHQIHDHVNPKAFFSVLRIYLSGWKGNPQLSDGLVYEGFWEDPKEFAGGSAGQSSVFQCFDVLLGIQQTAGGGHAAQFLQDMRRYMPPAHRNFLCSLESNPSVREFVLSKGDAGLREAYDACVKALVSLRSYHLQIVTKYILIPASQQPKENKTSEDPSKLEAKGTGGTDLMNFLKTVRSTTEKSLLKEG

SMILES | EC50 [nM]
O=C(Nc1ccc(F)cc1)c1cc(-c2cccn3c(-c4ccccn4)ncc23)ccc1C(F)(F)F [Example 33, N-(4-fluorophenyl)-5-(3-(pyridin-2-yl)imidazo[1,5-a]pyridin-8-yl)-2-(trifluoromethyl)benzamide] | 31.1
Cc1ccc(-c2cccn3c(-c4cccc(F)c4F)ncc23)cc1C(=O)Nc1ccc(F)cc1 [Example 34, 5-(3-(2,3-difluorophenyl)imidazo[1,5-a]pyridin-8-yl)-N-(4-fluorophenyl)-2-methylbenzamide] | 29.4
Cc1ncc(-c2cccn3c(-c4cccc(F)c4)ncc23)cc1C(=O)Nc1ccc(F)cc1 [Example 35, N-(4-fluorophenyl)-5-(3-(3-fluorophenyl)imidazo[1,5-a]pyridin-8-yl)-2-methylnicotinamide] | 26.8
O=C(Nc1ccc(F)cc1)c1cc(-c2cccn3c(-c4cnccn4)ncc23)ccc1C(F)(F)F [Example 36] | 25.2
Cc1ccc(-c2cccn3c(-c4ncccn4)ncc23)cc1C(=O)Nc1ccc(F)cc1 [Example 37, N-(4-fluorophenyl)-2-methyl-5-(3-(pyrimidin-2-yl)imidazo[1,5-a]pyridin-8-yl)benzamide] | 24.2
O=C(Nc1ccc(F)cc1)c1nc(-c2cccn3c(-c4cccc(F)c4F)ncc23)ccc1C(F)(F)F [Example 38, 6-(3-(2,3-difluorophenyl)imidazo[1,5-a]pyridin-8-yl)-N-(4-fluorophenyl)-3-(trifluoromethyl)picolinamide] | 23.8
O=C(Nc1ccc(F)cc1)c1cc(-c2cccn3c(-c4cccc(F)c4)ncc23)ccc1C(F)(F)F [Example 39, N-(4-fluorophenyl)-5-(3-(3-fluorophenyl)imidazo[1,5-a]pyridin-8-yl)-2-(trifluoromethyl)benzamide] | 23.3
Cc1ccc(-c2cccn3c(-c4ncco4)ncc23)cc1C(=O)Nc1ccc(F)cc1 [Example 40, N-(4-fluorophenyl)-2-methyl-5-(3-(oxazol-2-yl)imidazo[1,5-a]pyridin-8-yl)benzamide] | 23.1
O=C(Nc1ccc(F)cc1)c1cc(-c2cccn3c(-c4cccc(F)c4F)ncc23)ccc1C(F)F [Example 41, 2-(difluoromethyl)-5-(3-(2,3-difluorophenyl)imidazo[1,5-a]pyridin-8-yl)-N-(4-fluorophenyl)benzamide] | 19.8
Cc1ccc(-c2cccn3c(-c4cccc(F)c4F)ncc23)c(F)c1C(=O)Nc1ccc(F)cc1 [Example 42, 3-(3-(2,3-difluorophenyl)imidazo[1,5-a]pyridin-8-yl)-2-fluoro-N-(4-fluorophenyl)-6-methylbenzamide] | 17.7
Cc1ncc(-c2cccn3c(-c4cccc(F)c4F)ncc23)cc1C(=O)Nc1ccc(F)cc1 [Example 43, 5-(3-(2,3-difluorophenyl)imidazo[1,5-a]pyridin-8-yl)-N-(4-fluorophenyl)-2-methylnicotinamide] | 17.2
Cc1nc(-c2cccc(F)c2F)n2cccc(-c3ccc(C(F)(F)F)c(C(=O)Nc4ccc(F)cc4)c3)c12 [Example 44, 5-(3-(2,3-difluorophenyl)-1-methylimidazo[1,5-a]pyridin-8-yl)-N-(4-fluorophenyl)-2-(trifluoromethyl)benzamide] | 16.9
O=C(Nc1ccc(F)cc1)c1cc(-c2cccn3c(-c4ncccn4)ncc23)ccc1C(F)(F)F [Example 45] | 16.4
O=C(Nc1ccc(F)cc1)c1cc(-c2cccn3c(-c4ncco4)ncc23)ccc1C(F)(F)F [Example 46, N-(4-fluorophenyl)-5-(3-(oxazol-2-yl)imidazo[1,5-a]pyridin-8-yl)-2-(trifluoromethyl)benzamide] | 16.1
O=C(Nc1ccc(F)cc1)c1cc(-c2cccn3c(-c4cccc(F)c4F)ncc23)cnc1C(F)(F)F [Example 47, 5-(3-(2,3-difluorophenyl)imidazo[1,5-a]pyridin-8-yl)-N-(4-fluorophenyl)-2-(trifluoromethyl)nicotinamide] | 16
O=C(Nc1ccc(F)cc1)c1cc(-c2cccn3c(-c4cccc(F)c4F)ncc23)ccc1C(F)(F)F [Example 48, 5-(3-(2,3-difluorophenyl)imidazo[1,5-a]pyridin-8-yl)-N-(4-fluorophenyl)-2-(trifluoromethyl)benzamide] | 15.9
Cc1ncc(-c2cccn3c(-c4ccccc4F)ncc23)cc1C(=O)Nc1ccc(F)cc1 [Example 49, N-(4-fluorophenyl)-5-(3-(2-fluorophenyl)imidazo[1,5-a]pyridin-8-yl)-2-methylnicotinamide] | 15.7

SMILES | EC50 [nM]
Cc1ncc(-c2ccnn3c(-c4cccc(F)c4F)nnc23)cc1C(=O)Nc1ccc(F)cc1 [Example 50, 5-(3-(2,3-difluorophenyl)-[1,2,4]triazolo[4,3-b]pyridazin-8-yl)-N-(4-fluorophenyl)-2-methylnicotinamide] | 1890
Cc1ccc(-c2nccn3c(-c4cccc(F)c4F)ncc23)cc1C(=O)Nc1ccc(F)cc1 [Example 51, 5-(3-(2,3-difluorophenyl)imidazo[1,5-a]pyrazin-8-yl)-N-(4-fluorophenyl)-2-methylbenzamide] | 656
Cc1ccc(-c2nccn3c(-c4ccccc4C)ncc23)cc1C(=O)Nc1ccc(F)cc1 [Example 52, N-(4-fluorophenyl)-2-methyl-5-(3-(o-tolyl)imidazo[1,5-a]pyrazin-8-yl)benzamide] | 3110
Cc1cccc(-c2ncc3c(-c4ccc(C)c(C(=O)Nc5ccc(F)cc5)c4)nccn23)c1 [Example 53, N-(4-fluorophenyl)-2-methyl-5-(3-(m-tolyl)imidazo[1,5-a]pyrazin-8-yl)benzamide] | 2380
Cc1ccc(-c2nccn3c(-c4ccccn4)ncc23)cc1C(=O)Nc1ccc(F)cc1 [Example 54, N-(4-fluorophenyl)-2-methyl-5-(3-(pyridin-2-yl)imidazo[1,5-a]pyrazin-8-yl)benzamide] | 2630
O=C(Nc1ccc(F)cc1)c1cc(-c2cccn3c(-c4cccc(F)c4F)ncc23)ccc1OC(F)(F)F [Example 55] | 15
Cc1cnc(-c2cccn3c(-c4cccc(F)c4F)ncc23)cc1C(=O)Nc1ccc(F)cc1 [Example 56, 2-(3-(2,3-difluorophenyl)imidazo[1,5-a]pyridin-8-yl)-N-(4-fluorophenyl)-5-methylisonicotinamide] | 85.7
Cc1ccc(-c2cccn3c(-c4cccc(F)c4F)ncc23)nc1C(=O)Nc1ccc(F)cc1 [Example 57] | 76.8
Cc1ncc(-c2cccn3c(-c4cccc(F)c4F)ncc23)cc1C(=O)Nc1ccc(OC(F)(F)F)cc1 [Example 58, 5-(3-(2,3-difluorophenyl)imidazo[1,5-a]pyridin-8-yl)-2-methyl-N-(4-(trifluoromethoxy)phenyl)nicotinamide] | 110
Cc1ncc(-c2cccn3c(-c4cccc(F)c4F)ncc23)cc1C(=O)Nc1ccc(C#N)c(C(F)(F)F)c1 [Example 59, N-(4-cyano-3-(trifluoromethyl)phenyI)-5-(3-(2,3-difluorophenyl)imidazo[1,5-a]pyridin-8-yl)-2-methylnicotinamide] | 227
Cc1ncc(-c2cccn3c(-c4cccc(F)c4F)ncc23)cc1C(=O)Nc1ccc(F)cn1 [Example 60, 5-(3-(2,3-difluorophenyl)imidazo[1,5-a]pyridin-8-yl)-N-(5-fluoropyridin-2-yl)-2-methylnicotinamide] | 21.1
Cc1ncc(-c2cccn3c(-c4cccc(F)c4F)cnc23)cc1C(=O)Nc1ccc(Cl)cc1 [Example 61, N-(4-chlorophenyl)-5-(3-(2,3-difluorophenyl)imidazo[1,2-a]pyridin-8-yl)-2-methylnicotinamide] | 29.9
O=C(Nc1ccc(F)cc1)c1cc(-c2cccn3c(-c4cccc(F)c4F)ncc23)ccc1C1CC1 [Example 62, 2-cyclopropyl-5-(3-(2,3-difluorophenyl)imidazo[1,5-a]pyridin-8-yl)-N-(4-fluorophenyl)benzamide] | 15.2
Cc1ncc(-c2cccn3c(-c4cccc(F)c4F)ncc23)cc1C(=O)Nc1ccc(F)c(Br)c1 [Example 63, N-(3-bromo-4-fluorophenyl)-5-(3-(2,3-difluorophenyl)imidazo[1,5-a]pyridin-8-yl)-2-methylnicotinamide] | 307
Cc1ncc(-c2cccn3c(-c4cccc(F)c4F)ncc23)cc1C(=O)Nc1ccc(Cl)cc1F [Example 64, N-(4-chloro-2-fluorophenyl)-5-(3-(2,3-difluorophenyl)imidazo[1,5-a]pyridin-8-yl)-2-methylnicotinamide] | 24.3
Cc1cnc(-c2cccn3c(-c4cccc(F)c4F)ncc23)nc1C(=O)Nc1ccc(F)cc1 [Example 65, 2-(3-(2,3-difluorophenyl)imidazo[1,5-a]pyridin-8-yl)-N-(4-fluorophenyl)-5-methylpyrimidine-4-carboxamide] | 399
